Laboratory results taken from PMC7896091, “Synthesis of novel phytol-derived γ-butyrolactones and evaluation of their biological activity” (Scientific Reports, 2021).

What was measured:
MV4-11 cells = assay: Cell cycle analysis by flow cytometry (propidium iodide); type: cell-based, human; conditions: MV4-11, 75 µM, 72 h
Method: Cell cycle analysis was carried out according to the procedure previously described. The MV4-11 cells were seeded at the density of 1 × 10^5 cells/well of culture medium on 24-well plates (Sarstedt, Germany) to the final volume of 2 mL and were exposed to the test compounds at concentrations 75 μM for 72 h. After incubation, the cells were collected and 1 × 10^6 of cells were washed twice in cold PBS and fixed for 24 h in 70% ethanol at − 20 °C. Then the cells were washed twice in PBS and incubated with RNAse (8 μg/mL, Fermentas, Germany) at 37 °C for 1 h. The cells were stained for 30 min. with propidium iodide (50 μg/mL, Sigma Aldrich, Germany) at 4 °C and the cellular DNA content was analyzed by flow cytometry using BD LSRFortessa cytometer (BD Bioscience, San Jose, USA). Compounds at each concentration were tested at least three times independently. Obtained results were analyzed using Flowing software 2 (Cell Imaging Core, Turku Centre for Biotechnology, University of Turku Åbo Akademi University).

LoVo/DX cells = assay: Antiproliferative activity, SRB assay, doxorubicin resistant subline; type: cell-based, human; conditions: for IC50: 72 h exposure, SRB, mean ± SD, n.a = no activity in concentration of 5, 25, 125, 625 μM; for Selectivity index SI, LoVo/DX: SI = IC50 BALB/3T3 / IC50 LoVo/DX
Method: Cell lines were cultured according to the protocol described before. […] All culture media were supplemented with 2 mM L-glutamine (Sigma-Aldrich, Germany), 100 units/mL penicillin, and 100 µg/mL streptomycin (both from Polfa Tarchomin S.A., Poland). All cell lines were grown at 37 °C with 5% CO2 humidified atmosphere. The solutions of the compounds (50 mM) were prepared by dissolving the substances in DMSO (Sigma Aldrich, Germany). […] The in vitro cytotoxic effect of all agents was examined using the MTT (MV4-11) or SRB assay, described previously. […] Each compound in each concentration was tested in triplicate in a single experiment, which was repeated 3–5 times.

Myzus persicae = assay: EPG monitoring of aphid probing and feeding (no-choice test); type: in vivo; conditions: 8-h EPG; for Mean duration of probing (C + G + E) / Number of probes / Total duration of pathway (C) / Total duration of phloem phase (E) / Total duration of probing (C + G + E): 0.1% solution, n = 12; for Mean duration of probing (C + G + E) / Number of probes / Total duration of pathway (C) / Total duration of phloem phase (E) / Total duration of probing (C + G + E) / Number of probes before first phloem phase / Time from first probe to first phloem phase / Duration of first phloem phase / Total duration of phloem salivation E1 / Total duration of phloem sap ingestion E2 / Number of probes < 3 min: mean ± SE; for Number of probes before first phloem phase / Time from first probe to first phloem phase: activities in non-phloem tissues; for Number of probes before first phloem phase / Time from first probe to first phloem phase / Duration of first phloem phase / Total duration of phloem salivation E1 / Total duration of phloem sap ingestion E2 / Number of probes < 3 min: n = 10-12; for Duration of first phloem phase / Total duration of phloem salivation E1 / Total duration of phloem sap ingestion E2: activities in sieve elements; for Number of probes < 3 min: before first phloem phase; for Proportion of salivation in phloem phase: (duration of E1 / duration of E1 + E2)*100; for Proportion of phloem phase in total probing: index = duration of phloem phase E / duration of probing C + G + E
Method: The peach potato aphids Myzus persicae (Sulzer) and the Chinese cabbage Brassica rapa subsp. pekinensis (Lour.) Hanelt were reared in laboratory at 20 °C, 65% r.h., and L16:8D photoperiod. One to seven days old apterous females of M. persicae and 3-week old plants with 4–5 fully developed leaves were used for experiments. M. persicae were obtained from the laboratory culture maintained at the Department of Botany and Ecology for many generations since 2000. All experiments were carried out under the same conditions of temperature, relative humidity, and photoperiod. The bioassays were started at 10–11.a.m. Each compound was dissolved in 70% ethanol to obtain the recommended 0.1% solution[40]. All compounds were applied on the adaxial and abaxial leaf surfaces by immersing a leaf in the ethanolic solution of a given compound for 30 s.[20]. Control leaves of similar size were immersed in 70% ethanol that was used as a solvent for the studied compounds. Experiments were performed 1 h after the compounds application to allow the evaporation of the solvent. Every plant and aphid were used only once.
Aphid probing and the phloem sap uptake by M. persicae was monitored using the technique of electronic registration of aphid probing in plant tissues, known as EPG (= Electrical Penetration Graph), that is frequently employed in insect–plant relationship studies considering insects with sucking-piercing mouthparts[42]–[44]. In this experimental set-up, aphid and plant are connected to electrodes and thus made parts of an electric circuit, which is completed when the aphid inserts its stylets into the plant. Weak voltage is supplied in the circuit, and all changing electric properties are recorded as EPG waveforms that can be correlated with aphid activities and stylet position in plant tissues[45],[46]. The parameters describing aphid behaviour during probing and feeding, such as total time of probing, proportion of phloem patterns E1 and E2, number of probes, etc., are good indicators of plant suitability or interference of probing by chemical or physical factors in individual plant tissues[44]–[46]. In the present study, aphids were attached to a golden wire electrode with conductive silver paint (epgsystems. eu) and starved for 1 h prior to the experiment. Probing behaviour of 12 apterous females/studied compound and control was monitored for 8 h continuously with Giga-4 and Giga-8 DC EPG with 1 GΩ of input resistance recording equipment (EPG Systems, Wageningen, The Netherlands). Each aphid was given access to a freshly prepared plant and each aphid/plant combination was used only once. Various behavioural phases were labelled manually using the Stylet + software (www.epgsystems.eu). The following aphid behaviours were distinguished: no penetration (waveform 'np' – aphid stylets outside the plant), pathway phase—penetration of non-phloem tissues (waveforms 'ABC'), phloem phase (salivation into sieve elements, waveform ‘E1’ and ingestion of phloem sap, waveform ‘E2’), and xylem phase (ingestion of xylem sap, waveform 'G'). Waveform ‘G’ occurred rarely irrespective of the treatment. Therefore, in all calculations the xylem phase was added to the pathway phase and termed as probing in non-phloem tissues. The E1/E2 transition patterns were included in E2. Waveform patterns that were not terminated before the end of the experimental period (8 h) were not excluded from the calculations. The parameters derived from EPG recordings were analyzed according to their frequency and duration in configuration related to activities in peripheral and vascular tissues.
All statistical calculations related to data of the no-choice test were performed using StatSoft, Inc. (2014) STATISTICA (data analysis software system), version 12, www.statsoft.com. […]

| Compound | Induced death of cells (MV4-11 cells) | IC50 (LoVo/DX cells; Homo sapiens, LoVo/DX) [µM] | Selectivity index SI, LoVo/DX (LoVo/DX cells) | Mean duration of probing (C + G + E) (Myzus persicae) [h] | Number of probes (Myzus persicae) | Total duration of pathway (C) (Myzus persicae) [h] | Total duration of phloem phase (E) (Myzus persicae) [h] | Total duration of probing (C + G + E) (Myzus persicae) [h] | Number of probes before first phloem phase (Myzus persicae) | Time from first probe to first phloem phase (Myzus persicae) [h] | Duration of first phloem phase (Myzus persicae) [h] | Total duration of phloem salivation E1 (Myzus persicae) [min] | Total duration of phloem sap ingestion E2 (Myzus persicae) [h] | Number of probes < 3 min (Myzus persicae) | Proportion of salivation in phloem phase (Myzus persicae) [%] | Proportion of phloem phase in total probing (Myzus persicae) [%] | IC50 (LoVo/DX cells) [µM] | Number of probes before first phloem phase (Myzus persicae; listed as phytol) | Number of probes before first phloem phase (Myzus persicae; listed as phytol (1)) | Time from first probe to first phloem phase (Myzus persicae; listed as phytol (1)) [h] |
| --- | --- | --- | --- | --- | --- | --- | --- | --- | --- | --- | --- | --- | --- | --- | --- | --- | --- | --- | --- | --- |
| C=CC(C)(CCCC(C)CCCC(C)CCCC(C)C)CC(=O)O (centres unmarked) [compound 3, 3,7,11,15-tetramethyl-3-vinylhexadecanoic acid] | 50% | 55 ± 1.5 | 2.64 | 1.6 ± 0.7 | 25.3 ± 6.7 | 2.9 ± 0.5 | 4.1 ± 0.8 | 7.2 ± 0.2 | 15.7 ± 5.9 | 2.0 ± 0.5 | 3.3 ± 0.9 | 9.0 ± 6.0 | 3.9 ± 0.8 | 10.9 ± 4.4 | 8.4 | 52.6 |  |  |  |  |
| CC(C)CCCC(C)CCCC(C)CCC[C@]1(C)CC(=O)O[C@H]1CCl (stereo in doubt) [compound 7, cis-5-chloromethyl-4-methyl-4-(4′,8′,12′-trimethyltridecyl)dihydrofuran-2-one] | 20–30% | 237 ± 52.9 |  | 1.0 ± 0.4 | 18.7 ± 4.6 | 2.5 ± 0.5 | 4.4 ± 0.8 | 7.1 ± 0.5 | 15.6 ± 4.7 | 3.3 ± 0.8 | 3.6 ± 0.8 | 1.2 ± 0.6 | 4.4 ± 0.8 | 9.6 ± 3.6 | 0.4 | 56.9 |  |  |  |  |
| CC(C)CCCC(C)CCCC(C)CCC[C@]1(C)CC(=O)O[C@@H]1CBr (stereo in doubt) [compound 4, trans-5-Bromomethyl-4-methyl-4-(4′,8′,12′-trimethyltridecyl)dihydrofuran-2-one] | 20–30% | 306 ± 136 | 1.14 | 0.9 ± 0.3 | 20.8 ± 5.2 | 2.4 ± 0.6 | 4.8 ± 0.8 | 7.4 ± 0.3 | 17.2 ± 4.8 | 2.7 ± 0.8 | 3.0 ± 0.9 | 1.8 ± 0.6 | 4.8 ± 0.8 | 8.5 ± 3.6 | 1.5 | 62.9 |  |  |  |  |
| CC(C)CCCC(C)CCCC(C)CCC[C@]1(C)CC(=O)O[C@H]1CBr (stereo in doubt) [compound 5, cis-5-Bromomethyl-4-methyl-4-(4′,8′,12′-trimethyltridecyl)dihydrofuran-2-one] | 20–30% | 261 ± 104 | 1.62 | 0.5 ± 0.1 | 31.6 ± 9.1 | 2.8 ± 0.5 | 4.0 ± 0.7 | 7.1 ± 0.4 | 10.3 ± 3.1 | 1.4 ± 0.3 | 2.2 ± 0.8 | 2.4 ± 0.6 | 4.0 ± 0.7 | 7.1 ± 2.8 | 3.8 | 54.0 |  |  |  |  |
| CC(C)CCCC(C)CCCC(C)CCC[C@]1(C)CC(=O)O[C@@H]1CCl (stereo in doubt) [compound 6, trans-5-Chloromethyl-4-methyl-4-(4′,8′,12′-trimethyltridecyl)dihydrofuran-2-one] | 50% | 188 ± 32.7 | 1.46 | 1.2 ± 0.7 | 42.9 ± 10.4 | 3.0 ± 0.5 | 3.5 ± 0.8 | 6.6 ± 0.5 | 24.9 ± 9.0 | 3.0 ± 0.8 | 2.0 ± 0.8 | 3.0 ± 1.2 | 3.5 ± 0.8 | 20.3 ± 7.9 | 9.7 | 46.7 |  |  |  |  |
| 3,7,11,15-tetramethylhexadec-2-en-1-ol [Phytol (1), reference compound] |  |  | 0.91 | 0.3 ± 0.1 | 41.4 ± 7.6 | 4.2 ± 0.4 | 2.8 ± 0.5 | 7.1 ± 0.2 |  |  | 1.6 ± 0.5 | 8.4 ± 2.4 | 2.7 ± 0.5 | 18.8 ± 3.6 | 18.3 | 38.4 | 70.8 ± 3.9 | 27.0 (± 5.3) | 27.0 ± 5.3 | 2.7 ± 0.6 |
